Experimental data from PMC5218480 (PLoS ONE, 2017).

Test system: MV-4-11 cells
Test: Gene expression microarray analysis (Affymetrix PrimeView) and GSEA
Type: cell-based, human
Parameters: RFU PODN (11730768_x_at) / Fold change /veh PODN (11730768_x_at) / RFU LINC00158 (11744669_a_at) / Fold change /veh LINC00158 (11744669_a_at) / RFU DUSP10 (11751237_a_at) / Fold change /veh DUSP10 (11751237_a_at) / RFU ID3 (11757404_x_at) / Fold change /veh ID3 (11757404_x_at) / RFU PLEKHG5 (11737974_s_at) / Fold change /veh PLEKHG5 (11737974_s_at) / RFU LRRC4B (11730491_at) / Fold change /veh LRRC4B (11730491_at) / RFU GIMAP4 (11747438_a_at) / Fold change /veh GIMAP4 (11747438_a_at) / RFU KRT8 (11758183_x_at) / Fold change /veh KRT8 (11758183_x_at) / RFU CNN1 (11734310_a_at) / Fold change /veh CNN1 (11734310_a_at) / RFU VPS37D (11726825_at) / Fold change /veh VPS37D (11726825_at) / RFU C10orf10 (11716522_x_at) / Fold change /veh C10orf10 (11716522_x_at) / RFU KIR2DL2 /// KIR2DL4 /// KIR2DL5A /// KIR2DL5B /// KIR2DS1 /// KIR2DS2 /// KIR2DS3 /// KIR2DS4 /// KIR3DL3 /// KIR3DL3 /// KIR3DS1 (11738374_at) / Fold change /veh KIR2DL2 /// KIR2DL4 /// KIR2DL5A /// KIR2DL5B /// KIR2DS1 /// KIR2DS2 /// KIR2DS3 /// KIR2DS4 /// KIR3DL3 /// KIR3DL3 /// KIR3DS1 (11738374_at) / RFU C1QL1 (11718748_at) / Fold change /veh C1QL1 (11718748_at) / RFU TMPRSS4 (11747572_a_at) / Fold change /veh TMPRSS4 (11747572_a_at) / RFU HAMP (11756126_x_at) / Fold change /veh HAMP (11756126_x_at) / RFU RNFT2 (11725882_a_at) / Fold change /veh RNFT2 (11725882_a_at) / RFU NR4A2 (11747474_a_at) / Fold change /veh NR4A2 (11747474_a_at) / RFU ABCC12 (11746883_a_at) / Fold change /veh ABCC12 (11746883_a_at) / RFU TMEM136 (11760407_x_at) / Fold change /veh TMEM136 (11760407_x_at) / RFU CLDN22 /// WWC2 (11732394_at) / Fold change /veh CLDN22 /// WWC2 (11732394_at) / RFU HLA-DPB1 (11760878_x_at) / Fold change /veh HLA-DPB1 (11760878_x_at) / RFU SPINT1 (11716480_a_at) / Fold change /veh SPINT1 (11716480_a_at) / RFU GAP43 (11754022_s_at) / Fold change /veh GAP43 (11754022_s_at) / RFU A4GNT (11735810_at) / Fold change /veh A4GNT (11735810_at) / RFU PRB3 (11715151_x_at) / Fold change /veh PRB3 (11715151_x_at) / RFU TUBB4B (11761932_at) / Fold change /veh TUBB4B (11761932_at) / RFU CAPN14 (11732068_a_at) / Fold change /veh CAPN14 (11732068_a_at) / RFU TMCC2 (11721928_a_at) / Fold change /veh TMCC2 (11721928_a_at) / RFU IRGQ (11745062_a_at) / Fold change /veh IRGQ (11745062_a_at) / RFU FAM174B (11720279_a_at) / Fold change /veh FAM174B (11720279_a_at) / RFU TMPRSS4 (11748680_a_at) / Fold change /veh TMPRSS4 (11748680_a_at) / RFU FAM212B (11763350_a_at) / Fold change /veh FAM212B (11763350_a_at) / RFU PLEKHG5 (11743358_a_at) / Fold change /veh PLEKHG5 (11743358_a_at) / RFU ZSCAN30 (11745921_a_at) / Fold change /veh ZSCAN30 (11745921_a_at) / RFU CMKLR1 (11741424_a_at) / Fold change /veh CMKLR1 (11741424_a_at) / RFU LOC101060620 /// MAPK8IP1 (11723275_at) / Fold change /veh LOC101060620 /// MAPK8IP1 (11723275_at) / RFU SPTSSB (11747773_x_at) / Fold change /veh SPTSSB (11747773_x_at) / RFU PRSS12 (11739890_at) / Fold change /veh PRSS12 (11739890_at) / RFU BIN1 (11741810_x_at) / Fold change /veh BIN1 (11741810_x_at) / RFU WNT11 (11732464_a_at) / Fold change /veh WNT11 (11732464_a_at) / RFU C10orf10 (11716521_a_at) / Fold change /veh C10orf10 (11716521_a_at) / RFU C5orf56 (11738089_at) / Fold change /veh C5orf56 (11738089_at) / RFU CYB561 (11721691_x_at) / Fold change /veh CYB561 (11721691_x_at) / RFU ANKRD19P (11752326_a_at) / Fold change /veh ANKRD19P (11752326_a_at) / RFU OR2T12 /// OR2T33 /// OR2T8 (11738714_s_at) / Fold change /veh OR2T12 /// OR2T33 /// OR2T8 (11738714_s_at) / RFU VCAN (11748164_a_at) / Fold change /veh VCAN (11748164_a_at) / RFU JSRP1 (11732532_at) / Fold change /veh JSRP1 (11732532_at) / RFU KRTAP10-11 (11738290_x_at) / Fold change /veh KRTAP10-11 (11738290_x_at) / RFU MYO3A (11730013_a_at) / Fold change /veh MYO3A (11730013_a_at) / RFU EBF3 (11725865_a_at) / Fold change /veh EBF3 (11725865_a_at) / RFU CAMK2N1 (11719241_x_at) / Fold change /veh CAMK2N1 (11719241_x_at) / RFU C5orf56 (11738088_a_at) / Fold change /veh C5orf56 (11738088_a_at) / RFU OLFML3 (11715873_a_at) / Fold change /veh OLFML3 (11715873_a_at) / RFU LOC100653217 /// NTM (11731650_a_at) / Fold change /veh LOC100653217 /// NTM (11731650_a_at) / RFU MAPK11 (11762145_a_at) / Fold change /veh MAPK11 (11762145_a_at) / RFU FIZ1 (11724087_x_at) / Fold change /veh FIZ1 (11724087_x_at) / RFU OASL (11726364_x_at) / Fold change /veh OASL (11726364_x_at) / RFU SOX15 (11748057_x_at) / Fold change /veh SOX15 (11748057_x_at) / RFU CD79A (11719716_a_at) / Fold change /veh CD79A (11719716_a_at) / RFU HIST1H1D (11736915_at) / Fold change /veh HIST1H1D (11736915_at) / RFU CASKIN2 (11723855_a_at) / Fold change /veh CASKIN2 (11723855_a_at) / RFU LOC730098 (11760151_x_at) / Fold change /veh LOC730098 (11760151_x_at) / RFU OR4N2 (11742367_at) / Fold change /veh OR4N2 (11742367_at) / RFU PRRT2 (11749266_a_at) / Fold change /veh PRRT2 (11749266_a_at) / RFU SNX32 (11753110_a_at) / Fold change /veh SNX32 (11753110_a_at) / RFU CDHR5 (11726645_a_at) / Fold change /veh CDHR5 (11726645_a_at) / RFU RCAN1 (11760418_a_at) / Fold change /veh RCAN1 (11760418_a_at) / RFU FAM167A (11723789_a_at) / Fold change /veh FAM167A (11723789_a_at) / RFU FAM26E (11764081_at) / Fold change /veh FAM26E (11764081_at) / RFU ISYNA1 (11749810_s_at) / Fold change /veh ISYNA1 (11749810_s_at) / RFU ACY1 (11761880_at) / Fold change /veh ACY1 (11761880_at) / RFU 11764098_at / Fold change /veh 11764098_at / RFU SAMD14 (11745864_x_at) / Fold change /veh SAMD14 (11745864_x_at) / RFU NPB (11741838_a_at) / Fold change /veh NPB (11741838_a_at) / RFU TMPRSS6 (11731388_a_at) / Fold change /veh TMPRSS6 (11731388_a_at) / RFU KRTAP10-2 (11738614_at) / Fold change /veh KRTAP10-2 (11738614_at) / RFU ARHGAP8 /// PRR5-ARHGAP8 (11727945_x_at) / Fold change /veh ARHGAP8 /// PRR5-ARHGAP8 (11727945_x_at) / RFU KRTAP5-7 /// NADSYN1 (11734609_at) / Fold change /veh KRTAP5-7 /// NADSYN1 (11734609_at) / RFU RASL12 (11751679_a_at) / Fold change /veh RASL12 (11751679_a_at) / RFU CDKN2B (11736163_a_at) / Fold change /veh CDKN2B (11736163_a_at) / RFU PRF1 (11729649_at) / Fold change /veh PRF1 (11729649_at) / RFU, ZNF638 /// ZNF638-IT1 / Fold change vs veh, ZNF638 /// ZNF638-IT1 / RFU, PANK3 / Fold change vs veh, PANK3 / RFU, SH3YL1 / Fold change vs veh, SH3YL1 / RFU, ZEB2 / Fold change vs veh, ZEB2 / RFU, NRIP1 / Fold change vs veh, NRIP1 / RFU, PTTG1IP / Fold change vs veh, PTTG1IP / RFU, CAPN2 / Fold change vs veh, CAPN2 / RFU, MED14 / Fold change vs veh, MED14 / RFU, SNORA58 / Fold change vs veh, SNORA58 / RFU, C1orf63 / Fold change vs veh, C1orf63 / RFU, LRRFIP1 / Fold change vs veh, LRRFIP1 / RFU, NDUFAF7 / Fold change vs veh, NDUFAF7 / RFU, SLC12A2 / Fold change vs veh, SLC12A2 / RFU, IBTK / Fold change vs veh, IBTK / RFU, ESF1 / Fold change vs veh, ESF1 / Fold change vs veh, TMEM50B / RFU, TAOK1 / Fold change vs veh, TAOK1 / RFU, ACBD3 / Fold change vs veh, ACBD3 / RFU, TMA16 / Fold change vs veh, TMA16 / RFU, RWDD3 / Fold change vs veh, RWDD3 / RFU, BCAT1 / Fold change vs veh, BCAT1 / RFU, EDEM3 / Fold change vs veh, EDEM3 / RFU, TMEM33 / Fold change vs veh, TMEM33 / RFU, WDR75 / Fold change vs veh, WDR75 / RFU, AHCTF1 / Fold change vs veh, AHCTF1 / RFU, TFRC / Fold change vs veh, TFRC / RFU, ZDHHC17 / Fold change vs veh, ZDHHC17 / RFU, NOM1 / Fold change vs veh, NOM1 / RFU, ARL8B / Fold change vs veh, ARL8B / RFU, ZBTB11 / Fold change vs veh, ZBTB11 / RFU, TAMM41 / Fold change vs veh, TAMM41 / RFU, KIAA1704 /// LOC100996395 / Fold change vs veh, KIAA1704 /// LOC100996395 / RFU, ING1 / Fold change vs veh, ING1 / RFU, TRMT61B / Fold change vs veh, TRMT61B / RFU, FUBP3 / Fold change vs veh, FUBP3 / RFU, TP53 / Fold change vs veh, TP53 / RFU, TNKS2 / Fold change vs veh, TNKS2 / RFU, ZFP14 / Fold change vs veh, ZFP14 / RFU, ACTR2 / Fold change vs veh, ACTR2 / RFU, PPP3R1 / Fold change vs veh, PPP3R1 / RFU, PIK3R1 / Fold change vs veh, PIK3R1 / RFU, HNRNPA1 / Fold change vs veh, HNRNPA1 / RFU, RNF170 / Fold change vs veh, RNF170 / RFU, ZNF28 / Fold change vs veh, ZNF28 / RFU, RNGTT / Fold change vs veh, RNGTT / RFU, OGT / Fold change vs veh, OGT / RFU, BRD1 / Fold change vs veh, BRD1 / RFU, MARS / Fold change vs veh, MARS / RFU, ZNF655 / Fold change vs veh, ZNF655 / RFU, FAHD1 / Fold change vs veh, FAHD1 / RFU, BDP1 / Fold change vs veh, BDP1 / RFU, LRRCC1 / Fold change vs veh, LRRCC1 / RFU, ARID1A / Fold change vs veh, ARID1A / RFU, ZNF146 / Fold change vs veh, ZNF146 / RFU, ZNF330 / Fold change vs veh, ZNF330 / RFU, GPN3 / Fold change vs veh, GPN3 / RFU, C9orf123 / Fold change vs veh, C9orf123 / RFU, N4BP2L2 / Fold change vs veh, N4BP2L2 / RFU, ARFIP1 / Fold change vs veh, ARFIP1 / RFU, FAM179B / Fold change vs veh, FAM179B / RFU, BCL10 / Fold change vs veh, BCL10 / RFU, UHRF1BP1L / Fold change vs veh, UHRF1BP1L / RFU, BET1 / Fold change vs veh, BET1 / RFU, CNOT2 / Fold change vs veh, CNOT2 / RFU, ZNF268 / Fold change vs veh, ZNF268 / Fold change vs veh, ZNF507 / RFU, DGCR2 / Fold change vs veh, DGCR2 / RFU, WDSUB1 / Fold change vs veh, WDSUB1 / Fold change vs veh, HSP90B1 /// MIR3652 / RFU, ADSS / Fold change vs veh, ADSS / RFU, GK / Fold change vs veh, GK / RFU, ZNF148 / Fold change vs veh, ZNF148 / RFU, TAF9 / Fold change vs veh, TAF9 / RFU, SLC1A5 / Fold change vs veh, SLC1A5 / RFU, SLMO2 / Fold change vs veh, SLMO2 / RFU, ABCC4 / Fold change vs veh, ABCC4 / RFU, LOC101060439 /// RAP1B / Fold change vs veh, LOC101060439 /// RAP1B / RFU, RFX7 / Fold change vs veh, RFX7 / RFU, GTPBP10 / Fold change vs veh, GTPBP10 / RFU, CNEP1R1 / Fold change vs veh, CNEP1R1 / RFU, BIVM-ERCC5 /// ERCC5 / Fold change vs veh, BIVM-ERCC5 /// ERCC5 / RFU, ILF3 / Fold change vs veh, ILF3 / RFU 11762660_at / Fold change /veh 11762660_at / RFU VCAN (11757783_s_at) / Fold change /veh VCAN (11757783_s_at) / RFU DDX43 (11728927_at) / Fold change /veh DDX43 (11728927_at) / RFU KRT8 (11758188_x_at) / Fold change /veh KRT8 (11758188_x_at) / RFU NKD1 (11759106_at) / Fold change /veh NKD1 (11759106_at) / RFU SRD5A1 (11742802_a_at) / Fold change /veh SRD5A1 (11742802_a_at) / RFU TPSAB1 /// TPSB2 (11721975_s_at) / Fold change /veh TPSAB1 /// TPSB2 (11721975_s_at) / RFU GSTM3 (11746129_a_at) / Fold change /veh GSTM3 (11746129_a_at) / RFU IL23R (11737362_x_at) / Fold change /veh IL23R (11737362_x_at) / RFU TMEM51 (11727254_a_at) / Fold change /veh TMEM51 (11727254_a_at) / RFU PIWIL2 (11732686_x_at) / Fold change /veh PIWIL2 (11732686_x_at) / RFU ORM1 (11744905_x_at) / Fold change /veh ORM1 (11744905_x_at) / RFU CCDC152 (11743942_at) / Fold change /veh CCDC152 (11743942_at) / RFU ECM1 (11717891_a_at) / Fold change /veh ECM1 (11717891_a_at) / RFU IL23R (11748794_a_at) / Fold change /veh IL23R (11748794_a_at) / RFU TNFAIP8L3 (11732012_x_at) / Fold change /veh TNFAIP8L3 (11732012_x_at) / RFU MBOAT4 (11741988_at) / Fold change /veh MBOAT4 (11741988_at) / RFU 11764193_at / Fold change /veh 11764193_at / RFU TMEM53 (11763286_at) / Fold change /veh TMEM53 (11763286_at) / RFU MAGEB2 (11727129_at) / Fold change /veh MAGEB2 (11727129_at) / RFU TMEM200A (11744735_a_at) / Fold change /veh TMEM200A (11744735_a_at) / RFU CCDC152 (11751479_a_at) / Fold change /veh CCDC152 (11751479_a_at) / RFU FAM211A (11726209_a_at) / Fold change /veh FAM211A (11726209_a_at) / RFU RGS16 (11746705_a_at) / Fold change /veh RGS16 (11746705_a_at) / RFU VCAN (11755009_s_at) / Fold change /veh VCAN (11755009_s_at) / RFU RHOB (11743442_s_at) / Fold change /veh RHOB (11743442_s_at) / RFU RGS16 (11720943_a_at) / Fold change /veh RGS16 (11720943_a_at) / RFU RGS16 (11720944_at) / Fold change /veh RGS16 (11720944_at) / RFU, VPS4B / Fold change vs veh, VPS4B / RFU, CREB1 / Fold change vs veh, CREB1 / RFU, DNAJC13 / Fold change vs veh, DNAJC13 / RFU, GNAQ / Fold change vs veh, GNAQ / RFU, CDK5R1 / Fold change vs veh, CDK5R1 / RFU, ZRANB3 / Fold change vs veh, ZRANB3 / RFU, CUL4A / Fold change vs veh, CUL4A / RFU, CCNY / Fold change vs veh, CCNY / RFU, UFL1 / Fold change vs veh, UFL1 / RFU, COG3 / Fold change vs veh, COG3 / RFU, DIAPH2 / Fold change vs veh, DIAPH2 / RFU, SKA2 / Fold change vs veh, SKA2 / RFU, AFF3 / Fold change vs veh, AFF3 / RFU, LMF1 / Fold change vs veh, LMF1 / RFU, IPO11 / Fold change vs veh, IPO11 / RFU, DFFB / Fold change vs veh, DFFB / RFU, FOXP1 / Fold change vs veh, FOXP1 / RFU, CARD8 / Fold change vs veh, CARD8 / RFU, STRN3 / Fold change vs veh, STRN3 / RFU, ADK / Fold change vs veh, ADK / RFU, RASSF2 / Fold change vs veh, RASSF2 / RFU, WIPF1 / Fold change vs veh, WIPF1 / RFU, LARP1B / Fold change vs veh, LARP1B / RFU, RASA1 / Fold change vs veh, RASA1 / RFU, RB1 / Fold change vs veh, RB1 / RFU, PPFIA1 / Fold change vs veh, PPFIA1 / RFU, MAT2A / Fold change vs veh, MAT2A / RFU, CCT5 / Fold change vs veh, CCT5 / RFU, WDR92 / Fold change vs veh, WDR92 / RFU, CUX1 / Fold change vs veh, CUX1 / RFU, TTC7A / Fold change vs veh, TTC7A / RFU, TMEM135 / Fold change vs veh, TMEM135 / RFU, DEPTOR / Fold change vs veh, DEPTOR / RFU, CPM / Fold change vs veh, CPM / RFU, DNAJB6 / Fold change vs veh, DNAJB6 / RFU, CACNA2D3 / Fold change vs veh, CACNA2D3 / RFU, DTX4 / Fold change vs veh, DTX4 / RFU, TFCP2 / Fold change vs veh, TFCP2 / RFU, GMCL1 /// GMCL1P1 / Fold change vs veh, GMCL1 /// GMCL1P1 / RFU, AEBP2 / Fold change vs veh, AEBP2 / RFU, SNHG1 /// SNORD22 /// SNORD25 /// SNORD26 /// SNORD27 /// SNORD28 /// SNORD29 /// SNORD31 / Fold change vs veh, SNHG1 /// SNORD22 /// SNORD25 /// SNORD26 /// SNORD27 /// SNORD28 /// SNORD29 /// SNORD31 / Fold change (Aza/veh), C12orf56 (ProbeSet 11735607_a_at) / Fold change (ACY-1035/veh), C12orf56 (ProbeSet 11735607_a_at) / Fold change (Aza/veh), FGFR1OP (ProbeSet 11751329_s_at) / Fold change (ACY-1035/veh), FGFR1OP (ProbeSet 11751329_s_at) / Fold change (Aza/veh), VPS36 (ProbeSet 11739960_a_at) / Fold change (ACY-1035/veh), VPS36 (ProbeSet 11739960_a_at) / RFU SYPL1 (11715823_x_at) / Fold change /veh SYPL1 (11715823_x_at) / RFU IGFBP7 (11715501_s_at) / Fold change /veh IGFBP7 (11715501_s_at) / RFU REEP3 (11722064_at) / Fold change /veh REEP3 (11722064_at) / RFU IGLL1 (11728026_x_at) / Fold change /veh IGLL1 (11728026_x_at): dose or concentration left out as unconfirmed
Conditions: MV-4-11 cells, 48 hours

With `Nc1ccc(-c2cccs2)cc1NC(=O)c1ccc2c(c1)cc(C1CC1)n2CCN1CCOCC1` [ACY-1035] the “RFU FAM212B (11763350_a_at)” value was 31.32 RFU.
